Laboratory results: patent US9260429B2, “Pyrido[3,4-B]indoles and methods of use” (Medivation Technologies, Inc., priority 2008, dated 2016)

What was measured:
[1] = target: T1, human recombinant serotonin (5-Hydroxytryptamine) 5-HT2A receptor (Homo sapiens, UniProt P28223); test: Serotonin 5-HT2A radioligand binding ([3H]Ketanserin); conditions: 1 h; read-out: Percent Inhibition of ligand binding Serotonin (1 μM ligand concentration) 5-HT2A
T1 construct: expressed in transfected cells; host or cells: CHO-K1 cells
Method in brief: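 Membranes from CHO-K1 cells expressing the receptor, in 50 mM Tris-HCl pH 7.4, incubated 60 min at 25° C with 0.5 nM [3H]Ketanserin; 1 μM Mianserin defines non-specific binding. Filtration and counting; values are % inhibition of specific binding at 1 μM or lower, 1% DMSO.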

[2] = target: T2, human recombinant serotonin (5-Hydroxytryptamine) 5-HT6 receptor (Homo sapiens, UniProt P50406); test: Serotonin 5-HT6 radioligand binding ([3H]LSD); conditions: 2 h; read-out: Percent Inhibition of ligand binding Serotonin (1 μM ligand concentration) 5-HT6
T2 construct: expressed in transfected cells; host or cells: human HeLa cells
Method in brief: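 Human 5-HT6 receptor expressed in HeLa cells, in Tris-HCl pH 7.4 with 150 mM NaCl, ascorbic acid and BSA. Compounds at 1 μM or lower (1% DMSO) incubated 120 min at 37° C with 1.5 nM [3H]LSD. Non-specific binding defined with serotonin; filter counting gives % inhibition of specific binding.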

[3] = target: T3, human recombinant histamine H2 receptor (Homo sapiens, UniProt P25021); test: Histamine H2 radioligand binding ([125I]Aminopotentidine); conditions: 1 μM; inhibition of specific [125I]Aminopotentidine binding; read-out: Binding data (Percentage Inhibition) Histamine Binding (1 μM) H2
T3 construct: expressed in transfected cells; host or cells: CHO-K1 cells
Method in brief: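 Membranes of CHO-K1 cells expressing human H2 receptor incubated with 0.1 nM [125I]aminopotentidine, 120 min, 25 °C, 50 mM phosphate pH 7.4; nonspecific binding defined with 3 μM tiotidine.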

[4] = target: T4, human recombinant histamine H1 receptor (Homo sapiens, UniProt P35367); test: Histamine H1 radioligand binding ([3H]Pyrilamine); conditions: 1 μM; read-out: Binding data (Percentage Inhibition) Histamine Binding (1 μM) H1
T4 construct: expressed in transfected cells; host or cells: CHO cells
Method in brief: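 Binding to the human recombinant histamine H1 receptor, expressed in CHO cells, was measured in a modified Tris-HCl buffer (50 mM Tris-HCl, pH 7.4, 2 mM MgCl2, 100 mM NaCl, 250 mM Sucrose). Compounds were incubated with 1.2 nM [3H]Pyrilamine for 180 minutes at 25° C, with 1 μM pyrilamine defining non-specific binding. After filtration and washing, filter counts gave percent inhibition of specific binding.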

[5] = target: T5, human recombinant serotonin (5-Hydroxytryptamine) 5-HT2C receptor (Homo sapiens, UniProt P28335); test: Serotonin 5-HT2C radioligand binding ([3H]Mesulergine); conditions: 1 h; read-out: Percent Inhibition of ligand binding Serotonin (1 μM ligand concentration) 5-HT2C
T5 construct: expressed in transfected cells; host or cells: CHO-K1 cells
T5 sequence (P28335 33-458): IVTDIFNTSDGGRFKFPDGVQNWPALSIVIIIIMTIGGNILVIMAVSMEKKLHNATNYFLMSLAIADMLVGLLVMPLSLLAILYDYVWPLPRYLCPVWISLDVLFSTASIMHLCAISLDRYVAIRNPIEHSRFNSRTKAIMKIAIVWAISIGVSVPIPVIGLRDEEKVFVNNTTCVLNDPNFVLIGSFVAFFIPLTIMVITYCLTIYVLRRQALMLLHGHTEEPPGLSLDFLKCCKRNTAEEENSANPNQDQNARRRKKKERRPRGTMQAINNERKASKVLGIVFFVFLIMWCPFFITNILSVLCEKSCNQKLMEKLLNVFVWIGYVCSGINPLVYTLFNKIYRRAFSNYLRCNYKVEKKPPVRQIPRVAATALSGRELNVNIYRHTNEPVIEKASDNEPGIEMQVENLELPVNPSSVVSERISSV
Description: Compounds of the invention were incubated with 1 nM [^3H]Mesulergine for 60 minutes at 25° C. Non-specific binding was estimated in the presence of 1 μM Mianserin. Receptor proteins were filtered and washed, the filters were then counted to determine [^3H]Mesulergine specifically bound. […] Biochemical assay results are presented as the percent inhibition of specific binding in Table 5.

[6] = target: T6, human recombinant dopamine D2L receptor (Homo sapiens, UniProt P14416); test: Dopamine D2L radioligand binding ([3H]Spiperone); conditions: 2 h, 1 μM ligand conc.; read-out: Percent Inhibition of ligand binding Dopamine (1 μM ligand conc.) D2L
T6 construct: expressed in transfected cells; host or cells: CHO cells
Method in brief: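 CHO-expressed receptor in 50 mM Tris-HCl pH 7.4 with ascorbic acid, 0.001% BSA, 150 mM NaCl; 0.16 nM [3H]spiperone, 120 min at 25 °C; nonspecific binding with haloperidol.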

T2 sequence (P50406 whole entry): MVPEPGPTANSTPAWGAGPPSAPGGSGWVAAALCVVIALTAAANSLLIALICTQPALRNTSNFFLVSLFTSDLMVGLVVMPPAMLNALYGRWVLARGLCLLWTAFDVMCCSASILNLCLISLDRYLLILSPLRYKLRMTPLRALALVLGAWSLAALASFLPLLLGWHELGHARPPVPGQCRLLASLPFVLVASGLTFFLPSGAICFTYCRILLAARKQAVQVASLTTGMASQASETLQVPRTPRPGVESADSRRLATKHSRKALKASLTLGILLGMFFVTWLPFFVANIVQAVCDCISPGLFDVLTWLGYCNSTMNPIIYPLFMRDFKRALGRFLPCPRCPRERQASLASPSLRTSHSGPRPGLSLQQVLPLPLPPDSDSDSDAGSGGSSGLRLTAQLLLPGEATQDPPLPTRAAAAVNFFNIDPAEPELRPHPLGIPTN
T4 sequence (P35367 whole entry): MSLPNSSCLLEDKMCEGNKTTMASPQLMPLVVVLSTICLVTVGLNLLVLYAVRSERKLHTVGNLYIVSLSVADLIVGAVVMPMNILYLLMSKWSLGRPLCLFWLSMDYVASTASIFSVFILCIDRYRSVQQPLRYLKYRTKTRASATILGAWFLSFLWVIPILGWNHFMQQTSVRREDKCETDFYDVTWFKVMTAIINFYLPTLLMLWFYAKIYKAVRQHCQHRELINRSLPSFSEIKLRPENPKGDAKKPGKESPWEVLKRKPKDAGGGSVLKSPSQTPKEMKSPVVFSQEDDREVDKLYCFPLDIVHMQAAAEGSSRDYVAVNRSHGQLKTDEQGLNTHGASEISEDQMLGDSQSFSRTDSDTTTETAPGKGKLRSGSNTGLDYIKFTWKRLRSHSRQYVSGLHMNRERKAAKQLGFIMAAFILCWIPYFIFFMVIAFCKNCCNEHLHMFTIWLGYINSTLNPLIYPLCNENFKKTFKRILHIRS
T6 sequence (P14416 whole entry): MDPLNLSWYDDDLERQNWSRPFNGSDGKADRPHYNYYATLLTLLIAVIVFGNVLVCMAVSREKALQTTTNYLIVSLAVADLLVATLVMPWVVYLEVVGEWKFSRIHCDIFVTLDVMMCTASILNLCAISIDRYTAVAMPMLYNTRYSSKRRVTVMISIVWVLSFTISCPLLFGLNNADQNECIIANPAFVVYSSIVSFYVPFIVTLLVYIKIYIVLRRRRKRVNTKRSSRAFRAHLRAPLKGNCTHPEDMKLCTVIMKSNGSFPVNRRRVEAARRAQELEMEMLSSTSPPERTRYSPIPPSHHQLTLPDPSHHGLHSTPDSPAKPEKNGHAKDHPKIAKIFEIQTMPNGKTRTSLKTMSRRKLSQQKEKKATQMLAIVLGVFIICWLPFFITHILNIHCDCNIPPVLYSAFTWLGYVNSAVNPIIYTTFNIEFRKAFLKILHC
T3 sequence (P25021 whole entry): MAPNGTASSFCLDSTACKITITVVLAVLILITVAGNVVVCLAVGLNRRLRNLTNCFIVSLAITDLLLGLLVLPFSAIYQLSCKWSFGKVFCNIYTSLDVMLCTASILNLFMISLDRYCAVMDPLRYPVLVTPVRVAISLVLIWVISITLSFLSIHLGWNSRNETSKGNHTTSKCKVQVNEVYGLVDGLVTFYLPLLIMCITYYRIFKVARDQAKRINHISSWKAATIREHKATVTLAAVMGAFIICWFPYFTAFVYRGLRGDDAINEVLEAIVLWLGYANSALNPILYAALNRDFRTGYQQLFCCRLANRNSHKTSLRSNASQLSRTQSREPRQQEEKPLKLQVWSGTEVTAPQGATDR
T1 sequence (P28223 whole entry): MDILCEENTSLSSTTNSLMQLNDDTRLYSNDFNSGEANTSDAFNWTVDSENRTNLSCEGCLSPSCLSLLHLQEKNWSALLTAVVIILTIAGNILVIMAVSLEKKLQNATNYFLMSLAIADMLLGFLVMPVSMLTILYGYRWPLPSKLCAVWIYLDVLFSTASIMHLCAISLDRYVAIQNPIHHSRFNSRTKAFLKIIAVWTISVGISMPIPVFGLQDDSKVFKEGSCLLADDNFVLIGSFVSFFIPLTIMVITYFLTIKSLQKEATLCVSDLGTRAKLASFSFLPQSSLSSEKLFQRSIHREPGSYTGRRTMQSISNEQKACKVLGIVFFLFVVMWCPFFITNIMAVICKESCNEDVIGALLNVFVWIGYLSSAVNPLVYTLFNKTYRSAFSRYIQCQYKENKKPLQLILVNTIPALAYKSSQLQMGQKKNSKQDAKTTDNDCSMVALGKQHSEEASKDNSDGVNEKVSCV

Compound	inhibition at 1 µM [1]	inhibition at 1 µM [2]	inhibition at 1 µM [3]	inhibition at 1 µM [4]	inhibition at 1 µM [5]	inhibition at 1 µM [6]
C/C(=C\n1c2c(c3cc(Cl)ccc31)CCN(C)C2)c1ccc(Cl)cc1 [Compound 98, 6-chloro-9-(2-(4-chlorophenyl)prop-1-enyl)-2-methyl-2,3,4,9-tetrahydro-1H-pyrido[3,4-b]indole]	98%	79%	94%	40%	103%	32%
C/C(=C\n1c2c(c3cc(Cl)ccc31)CCN(C)C2C)c1ccc(Cl)cc1 (stereo not drawn) [Compound 99, 6-chloro-9-(2-(4-chlorophenyl)prop-1-enyl)-1,2-dimethyl-2,3,4,9-tetrahydro-1H-pyrido[3,4-b]indole]	86%	69%	62%	65%	97%	-7%
CCC1c2c(c3cc(Cl)ccc3n2/C=C(\C)c2ccc(Cl)cc2)CCN1C (stereo not drawn) [Compound 100, 6-chloro-9-(2-(4-chlorophenyl)prop-1-enyl)-1-ethyl-2-methyl-2,3,4,9-tetrahydro-1H-pyrido[3,4-b]indole]	87%	23%	39%	33%	98%	-11%
CC1c2c(c3cc(Cl)ccc3n2C#Cc2ccc(F)cc2)CCN1C (stereo not drawn) [Compound 128]	95%	90%	53%	32%	101%	14%
CCC1c2c(c3cc(Cl)ccc3n2C#Cc2ccc(F)cc2)CCN1C (stereo not drawn) [Compound 129]	85%	22%	26%	8%	107%	-8%
